Drawing on patent publication US20090186838A1, “Amphotericin Derivatives” (Eidgenössische Technische Hochschule Zürich, priority 2006, published 2009), this text covers MIC, EH50 and Solubility in water for two compounds.

Data set [1] deals with DSY-1764 C. albican mutant erg3/11 (AmB-resistant strain). Nature of the data set: MIC determination in AmB-resistant Candida strain DSY-1764. Type of data set: cell-based, Candida albicans. The protocol:
(§1) In Vitro Antifungal Activity. MIC values for various strains were determined in accordance with the standard protocol from the National Committee of Clinical Laboratory Standards but using YEPD liquid medium instead of RPMI-1640 medium (National Committee of Clinical Laboratory Standards (Reference Method for Broth Dilution Antifungal Susceptibility Testing of Yeast, M27-A2, Approved Standard-Second Edition, Volume 22, Number 15, 1995). AmB was used as a reference. The strains were cultivated overnight in 5 mL YEPD liquid medium at 30 to 37° C. (30° C. for the strain BY4741; 37° C. for the strain DSY1764) with constant shaking. The saturated cultures were diluted to an ODB600 of 0.1 (3×10P^7 cells/mL). Using 24 wells plate, each well was prepared by adding 1% (12 μL) of DMSO solution of the tested polyene macrolide with 1% (12 μL) yeast cells solution and completed with YEPD (1.176 mL). The plates were sealed with Parafilm and then incubated for 18 to 36 hours at 30 to 37° C. (18 hours at 30° C. for the strain BY4741; 36 hours at 37° C. for the strain DSY1764). The optical density was read at 600 nm using 1.5 mL cuvettes. The MIC value was defined as the drug concentration needed to inhibit growth, less than 5% compared to a drug-free culture.
(§2) MIC values of the polyene macrolides 3, 9 and 10 (Diamine-AmB and its ester and diamide derivative, respectively) in various Candida strains including an AmB-resistant strain C. albicans (DSY1764, with the genotype erg3AΔ::hisG/erg3BΔ::hisG erg11Δ::hisG/erg11Δ::hisG-URA3-hisG) were determined.

The subject of data set [2] is DSY-1751 C. albican mutant erg3. Nature of the data set: MIC determination in Candida strain DSY-1751. The class given is cell-based, Candida albicans. The protocol:
as §1, §2

The test system of data set [3] is CAF2-1 C. albican wt. Nature of the data set: MIC determination in Candida strain CAF2-1. Type of data set: cell-based, Candida albicans. The protocol:
as §1, §2

Data set [4] relates to DSY-296 C. albican CI. The data set is described as follows: MIC determination in Candida strain DSY-296. The class given is cell-based, Candida albicans. The procedure: as §1, §2
The subject of data set [5] is DSY-565 C. glabrata CI. The data set is described as follows: MIC determination in Candida strain DSY-565. The class given is cell-based. The protocol:
as §1, §2

In data set [6] the test system is DSY-562 C. glabrata CI. Nature of the data set: MIC determination in Candida strain DSY-562. Type of data set: cell-based. The procedure:
as §1, §2

Data set [7] relates to Saccharomyces cerevisiae wild type BY4741. The data set is described as follows: MIC determination in Saccharomyces cerevisiae wild type BY4741. Type of data set: cell-based. The settings on record: read-out: MIC. The procedure: as §1
MIC values of various polyene macrolides of the invention in Saccharomyces cerevisiae wild type BY4741, a derivative of S288C, (with AmB as a reference) were determined as described hereinabove.
Based on the remarkable performance observed with the Diamine-AmB conjugate similar modifications of the aminosugar moiety were made on other polyene macrolides, such as for example Nystatin (1b) and Pimaricin (1c). The antifungal activity of these nystatin and pimaricin conjugates bearing two aminopropyl side chains was measured using Saccharomyces cerevisiae wild type BY4741.

The test system of data set [8] is human erythrocytes. The data set is described as follows: Hemolytic assay (EH50). The class given is cell-based. The settings on record: concentration that led to 50% hemolysis of human erythrocytes; one hour at 37° C. The procedure:
Hemolytic Assay. The hemotoxicity of the polyene macrolide derivatives of the invention was determined by measuring the toxicity towards human erythrocytes (EH50 value) using an established assay (Kinsky, S. C. et al., Biochem. Biophys. Res. Comm. 1962, 9, 503). Human blood, anticoagulated with citrate or EDTA, was centrifuged (2000×g) at 4° C. for 10 minutes. The pellets were washed three times with PBS buffer (pH 7.2 with 2 g/L glucose) and then diluted to a concentration of 4% (4×10^8 cells/mL). All experiments were done in triplo and the total volume for the hemolysis tubes was 1.4 ml. The solutions were prepared by adding 1% (14 μL) of DMSO solution of the tested compound with […] of PBS buffer and completed with 750 μL of 4% erythrocytes. After one hour incubation at 37° C., the samples were centrifuged (1500×g) at 4° C. for 5 min and the absorbance of the supernatant was measured at 560 nm. The concentration that led to 50% hemolysis (EH50) was intrapolated graphically. The value for the 100% hemolysis was obtained by the treatment with 100 μM of AmB.
The toxicity of AmB (1a) and the polyene macrolides 3, 9 and 10 towards human erythrocytes was examined using the above described hemolysis assay (Table 3).

Data set [9] is described as follows: Solubility assay. The class given is physicochemical. Conditions: DMSO stock added to PBS buffer solution pH 7.2; precipitation point by light scattering at 600 nm. The procedure: Solubility assay. The solubility assay was performed according to Lipinski, C. A. et al Advances Drug Delivery Reviews 2001, 46, 3-26. Typically, a compound of the invention was dissolved in DMSO at a concentration of 10 μg/μl. The so obtained solution was added in […] at 1 min intervals to 2.5 ml PBS buffer solution pH 7.2. These additions correspond to solubility increments of 5 μg/ml to a top value of 65 μg/ml. A total of 14 additions were made and each time increased UV absorbance from light scattering was measured at 600 nm. The precipitation point was calculated from a bilinear curve fit to the Absorbance (y axis) versus μl of DMSO (x axis) plot.
The solubility of the polyene macrolides of the invention in water was tested following the above described protocol. Clearly, all conjugates were more soluble in water then AmB.

Data set [10] relates to DSY-654 C. albican mutant cdr1/2. The data set is described as follows: MIC determination in Candida strain DSY-654. Type of data set: cell-based, Candida albicans. The settings on record: DSY-654 C. albican mutant cdr1/2. The protocol:
as §1, §2

Data set [11] has as its system DSY-294 C. albican CI. Nature of the data set: MIC determination in Candida strain DSY-294. Type of data set: cell-based, Candida albicans. The procedure: as §1, §2
[12] abbreviates: Saccharomyces cerevisiae wild type BY4741, YEPD liquid medium, 18 hours at 30° C.

Values after ≈ are worked out from the molar mass of the structure shown. Like-named read-outs stand apart in the source and are kept apart here.

The MIC is the lowest concentration that inhibits growth of the organism.

Consider `C[C@@H]1[C@H](O)[C@@H](C)/C=C/C=C/C=C/C=C/C=C/C=C/C=C/[C@H](O[C@@H]2O[C@H](C)[C@@H](O)[C@H](N(CCCN)CCCN)[C@@H]2O)CC2O[C@](O)(C[C@@H](O)C[C@@H](O)[C@H](O)CC[C@@H](O)C[C@@H](O)CC(=O)O[C@H]1C)C[C@H](O)[C@H]2C(=O)NCCCN(C)C` [compound 11, 16-(N′-(3-Dimethylaminopropyl)carboxamide)-N,N-di-(3-aminopropyl)-AmB], for which the MIC in [1] (Candida albicans, 36 h) is 1 µM (≈ 1.12 µg/mL); in data set [2] (Candida albicans) it was 1 µM (≈ 1.12 µg/mL); in [3] (Candida albicans), 0.5 µM (≈ 0.561 µg/mL); in data set [4] (Candida albicans), 0.3 µM (≈ 0.337 µg/mL); in data set [5] (Nakaseomyces glabratus) it was 0.3 µM (≈ 0.337 µg/mL); in data set [6] (Nakaseomyces glabratus), 0.3 µM (≈ 0.337 µg/mL). Besides, the MIC in data set [7] (setting [12]) stood at 0.4 µM (≈ 0.449 µg/mL).
With `C[C@@H]1[C@H](O)[C@@H](C)/C=C/C=C/C=C/C=C/C=C/C=C/C=C/[C@H](O[C@@H]2O[C@H](C)[C@@H](O)[C@H](N)[C@@H]2O)C[C@@H]2O[C@](O)(C[C@@H](O)C[C@@H](O)[C@H](O)CC[C@@H](O)C[C@@H](O)CC(=O)O[C@H]1C)C[C@H](O)[C@H]2C(=O)O` [AmB, Amphotericin B, reference compound], the MIC in [1] (DSY-1764 C. albican mutant erg3/11, AmB-resistant, 36 hours at 37° C.) stood at 50 µM (≈ 46.2 µg/mL); in [2] (DSY-1751 C. albican mutant erg3), 0.30 µM (≈ 0.277 µg/mL); in [3], 0.30 µM (≈ 0.277 µg/mL); in data set [4] (DSY-296 C. albican CI) it was 0.40 µM (≈ 0.37 µg/mL); in data set [5] (DSY-565 C. glabrata CI) it was 0.50 µM (≈ 0.462 µg/mL); in [10] it was 0.50 µM (≈ 0.462 µg/mL). Further, the MIC was found to be 0.50 µM (≈ 0.462 µg/mL) in data set [6]; 0.40 µM (≈ 0.37 µg/mL) in data set [11]; 0.3 µM (≈ 0.277 µg/mL) in [7] (setting [12]); 0.30 µM (≈ 0.277 µg/mL) in data set [7] (Table 3, strain not given, values as in Table 1 (S. cerevisiae BY4741)). The compound further had an EH50 in data set [8] of 4.0 µM. In data set [9], this compound gave a Solubility in water of 10 µg/mL (≈ 10.8 µM).
